# Measured values from publication PMC6797515, “Effects of Bakuchiol on chondrocyte proliferation via the PI3K‐Akt and ERK1/2 pathways mediated by the estrogen receptor for promotion of the regeneration of knee articular cartilage defects” (Cell Proliferation, 2019).
# Experiments:
# [1] = test system: ERK1/2; test: Western blotting for phosphorylated/total ERK1/2; type: cell-based, rat
# Method: (§1) Western blotting analysis was performed as described previously. After separation using SDS‐PAGE then transfer to PVDF membranes, the target proteins were detected after incubating with primary antibodies for CDK1 (Abcam: ab18, 1:1000), E2F1 (Abcam: ab179445, 1:1000), phosphorylated Akt (CST: 9271, 1:1000), Akt (CST: 9272, 1:1000), phosphorylated ERK1/2 (Abcam: ab201015, 1:1000), ERK1/2 (Abcam: ab36991, 1:1000) and ERα (Santa Cruz: sc‐8005, 1:200). The membranes were then incubated with the corresponding secondary antibody at 37°C for 1 hour Finally, the immunoreactive bands were developed using SuperSignal West Femto Maximum sensitivity substrate (Thermo Fisher Scientific), and the images analysed using Quantity One Software (Bio‐Rad). The PI3K‐Akt and ERK signalling pathways were involved in the regulation of cell proliferation by BAK. Two methods of analysis were conducted to verify this. Firstly, the cells were treated with BAK or BAK plus the Akt or ERK inhibitors PI‐103 and SCH772984, respectively. […] Finally, the protein expression levels of CDK1 and phosphorylated and total Akt (p/t‐Akt) were detected using Western blotting so as to confirm the involvement of the ERα/PI3K‐Akt/ERK axis signalling pathways in cell proliferation by BAK stimulation.
# [2] = test system: estrogen receptor; parameters: method as in earlier work; conditions: ref 11 (Lim et al); cited from earlier work
# [3] = test system: rat chondrocytes; test: CCK8 cell viability / cytotoxicity assay; type: cell-based
# Method: Rat chondrocytes were isolated using a method adapted from a previous study.9 Briefly, articular cartilage was retrieved from the knees of healthy Sprague-Dawley rats (male, n = 5, weight: 150 g). The cartilage was minced, and pieces digested with 2 mg/mL of collagenase type II (Gibco) for 2 hours. After removal of undigested tissue, the cells were cultured in DMEM/F12 (1:1) supplemented with 10% FBS. Passage 2-3 (P2-3) cells were used in the experimental studies. The bakuchiol was purchased from Selleck ([…]). Animal experiment protocol was reviewed and approved by the Institutional Review Board (IRB) of Chongqing University. Cell viability in response to BAK was evaluated using a cell counting kit-8 (CCK8) assay which was also utilized to assess cell viability. Cells were seeded at a density of 1 × 10^4 cells/well in a 24-well plate and the cytotoxicity of BAK tested using concentrations of 1 to 100 μmol/L for 3 days. The cells were then treated with 10 μmol/L BAK for 7 days. The cells were then washed with PBS and incubated in serum-free medium containing 10% CCK8 reagent for 2-3 hours at 37°C in an atmosphere containing 5% CO2. Aliquots were pipetted into a 96-well plate and absorbance at 490 nm measured using a plate reader (Bio-Rad).
# [4] = test system: CDK1; test: Western blotting for CDK1 protein; type: cell-based, rat; conditions: for CDK1 protein levels in chondrocytes: inhibitor 1 µmol/L added to 10 µmol/L BAK
# Method: Western blotting analysis was performed as described previously. After separation using SDS‐PAGE then transfer to PVDF membranes, the target proteins were detected after incubating with primary antibodies for CDK1 (Abcam: ab18, 1:1000), E2F1 (Abcam: ab179445, 1:1000), phosphorylated Akt (CST: 9271, 1:1000), Akt (CST: 9272, 1:1000), phosphorylated ERK1/2 (Abcam: ab201015, 1:1000), ERK1/2 (Abcam: ab36991, 1:1000) and ERα (Santa Cruz: sc‐8005, 1:200). The membranes were then incubated with the corresponding secondary antibody at 37°C for 1 hour Finally, the immunoreactive bands were developed using SuperSignal West Femto Maximum sensitivity substrate (Thermo Fisher Scientific), and the images analysed using Quantity One Software (Bio‐Rad). The PI3K‐Akt and ERK signalling pathways were involved in the regulation of cell proliferation by BAK. Two methods of analysis were conducted to verify this. Firstly, the cells were treated with BAK or BAK plus the Akt or ERK inhibitors PI‐103 and SCH772984, respectively. Following culture of the cells, Western blotting was used to ascertain if Akt or ERK1/2 were phosphorylated and to verify the association between BAK and the activation of the Akt and ERK1/2 pathways. Secondly, ERα siRNA (ERα si‐R) was used to knockdown estrogen receptor in the target cells, which were then further cultured for 48 hours with BAK. Meanwhile, the non‐treatment group was used as the control. Finally, the protein expression levels of CDK1 and phosphorylated and total Akt (p/t‐Akt) were detected using Western blotting so as to confirm the involvement of the ERα/PI3K‐Akt/ERK axis signalling pathways in cell proliferation by BAK stimulation.
# [5] = test system: MKI67; test: Immunofluorescent staining of MKI67 in chondrocytes; type: cell-based, rat; conditions: 10 µmol/L, relative to control
# [6] = test system: chondrocytes; test: EdU DNA proliferation assay; type: cell-based, rat; conditions: 10 and 20 µmol/L, 24 and 48 hours
# Method: Chondrocyte proliferation was quantified using an ethynyl deoxyuridine (EdU) DNA in vitro proliferation detection kit (Guangzhou RiboBio) using flow cytometry, in accordance with the manufacturer's instructions.14 Images of cells were captured by light with microscopy using Image‐Pro Plus 6.0 software (Media Cybernetics). The number of EdU‐labelled cells was calculated from fields randomly selected in each well. Numbers of cells in each phase of the cell cycle were calculated using a BD FACS Calibur Flow Cytometer at a 488 nm excitation wavelength.
# [7] = test system: MKI67; test: qRT-PCR gene expression of MKI67; type: cell-based, rat; conditions: 10 µmol/L, 48 hours
# Text: (§2) Cells were harvested using Trizol reagent (Invitrogen), followed by RNA isolation. Each sample was reverse transcribed to cDNA using a RevertAid First Strand cDNA Synthesis Kit (Thermo Fisher Scientific). The reverse transcription product was then used as a template to perform real‐time polymerase chain reaction (PCR) on a StepOne Plus thermal cycler (Applied Biosystems) using PowerUp™ SYBR™ Green Master Mix (Applied Biosystems), following the manufacturer's guidelines. The primers for CDK1 (F: 5′‐[…]‐3′; R: 5′‐[…]‐3′), E2F1 (F: 5′‐[…]‐3′; 5′‐[…]‐3′), MKI67 (F: 5′‐[…]‐3′; R: 5′‐[…]‐3′) were synthesized by Invitrogen. The final data were analysed by the 2^−ΔΔ ^C ^t method.
# [8] = test system: E2F1; test: qRT-PCR gene expression of E2F1; type: cell-based, rat; conditions: 10 µmol/L, 48 hours
# Text: as §2
# [9] = test system: Akt; test: Western blotting for phosphorylated/total Akt; type: cell-based, rat
# Method: as §1
# [10] = test system: CDK1; test: qRT-PCR gene expression of CDK1; type: cell-based, rat; conditions: 10 µmol/L, 48 hours
# Text: as §2
# [11] = test system: Ki67, p‐ERK and p‐Akt; test: Immunofluorescent staining of Ki67, p-Akt, p-ERK at the defect site; type: in vivo, Sprague‐Dawley (SD) rats; conditions: 1 and 2 weeks post-injury
# Method: Animal experiments were conducted in accordance with protocols approved by the Chongqing University Animal Care and Use Committee. For the cartilage injury model, a 0.5‐mm‐deep thickness defect was created through the articular cartilage and subchondral bone of the patellar groove of Sprague‐Dawley (SD) rats (200‐250 g) using a micro‐electrical drill. Matrigel mixed with bakuchiol (100 µmol/L) was implanted locally to fill the cartilage defect. Articular cartilage samples were harvested after 1 and 2 weeks post‐implantation for macroscopic and histological evaluation, with analysis by micro‐CT. The harvested samples were embedded in paraffin, sectioned for 10 μm thickness and then stained with haematoxylin and eosin (H&E), Safranin‐O green and Alcian blue. The sections were scored histologically in accordance with previous studies.9, 17, 18 The relative area of each defect (Figure 6: area within the dashed line) in the different groups was measured using Image J. The relative content of cartilage matrix was ascertained from the degree of Safranin staining (Red area) and GAG content by Alcian blue staining (Positive blue area). All morphological measurements were performed using Image J. The mean histological scores for each group were statistically analysed, with t tests performed between the BAK‐treated group and control. […]
# [12] = test system: E2F1; test: Western blotting for E2F1 protein; type: cell-based, rat; conditions: BAK 1 to 10 µmol/L for 3 d
# Method: Western blotting analysis was performed as described previously. After separation using SDS‐PAGE then transfer to PVDF membranes, the target proteins were detected after incubating with primary antibodies for CDK1 (Abcam: ab18, 1:1000), E2F1 (Abcam: ab179445, 1:1000), phosphorylated Akt (CST: 9271, 1:1000), Akt (CST: 9272, 1:1000), phosphorylated ERK1/2 (Abcam: ab201015, 1:1000), ERK1/2 (Abcam: ab36991, 1:1000) and ERα (Santa Cruz: sc‐8005, 1:200). The membranes were then incubated with the corresponding secondary antibody at 37°C for 1 hour Finally, the immunoreactive bands were developed using SuperSignal West Femto Maximum sensitivity substrate (Thermo Fisher Scientific), and the images analysed using Quantity One Software (Bio‐Rad).
# [13] = test system: knee articular cartilage defect; test: Rat knee articular cartilage defect model, histological evaluation; type: in vivo, Sprague‐Dawley (SD) rats; conditions: Matrigel with bakuchiol 100 µmol/L implanted locally
# Method: Animal experiments were conducted in accordance with protocols approved by the Chongqing University Animal Care and Use Committee. For the cartilage injury model, a 0.5‐mm‐deep thickness defect was created through the articular cartilage and subchondral bone of the patellar groove of Sprague‐Dawley (SD) rats (200‐250 g) using a micro‐electrical drill. Matrigel mixed with bakuchiol (100 µmol/L) was implanted locally to fill the cartilage defect. Articular cartilage samples were harvested after 1 and 2 weeks post‐implantation for macroscopic and histological evaluation, with analysis by micro‐CT. The harvested samples were embedded in paraffin, sectioned for 10 μm thickness and then stained with haematoxylin and eosin (H&E), Safranin‐O green and Alcian blue. The sections were scored histologically in accordance with previous studies.9, 17, 18 The relative area of each defect (Figure 6: area within the dashed line) in the different groups was measured using Image J. The relative content of cartilage matrix was ascertained from the degree of Safranin staining (Red area) and GAG content by Alcian blue staining (Positive blue area). All morphological measurements were performed using Image J. The mean histological scores for each group were statistically analysed, with t tests performed between the BAK‐treated group and control. In addition, the histological immunofluorescent staining for Ki67, p‐Akt, and p‐ERK was performed to verify the in vivo mechanisms of BAK on cell proliferation.
smiles,measurement,setting,value
"C=C[C@@](C)(/C=C/c1ccc(O)cc1)CCC=C(C)C [BAK, bakuchiol]",ratio of phosphorylated/total ERK1/2 (p/t-ERK1/2),[1]; 10 µmol/L BAK,improved the ratios
same,estrogen receptor-binding affinity,[2],high estrogen receptor‐binding affinity
same,cell viability vs control,"[3]; 10 µmol/L, 7 days of culture",promoted cell viability
same,toxicity in the cells,[3]; 100 µmol/L,clear toxicity
same,cytotoxic effects on chondrocytes,"[3]; 1 to 100 µmol/L, after 24 hours",no cytotoxic effects
same,proliferation of chondrocytes vs control,"[3]; 5, 10 and 20 µmol/L, control 0.1% DMSO",increased proliferation significantly
same,EC50,"[3]; Rattus norvegicus, Chondrocyte, CCK8, chondrocytes, 24 h, Figure 1A, read-out: EC50 of BAK",8.9 µM
same,IC50,"[3]; Rattus norvegicus, Chondrocyte, CCK8, chondrocytes, Figure S1, read-out: IC50 (toxicity in the cells)",48.5 µM
same,BAK concentration in the medium with significant cytotoxicity,[3]; chondrocytes,> 20 µmol/L
same,CDK1 protein synthesis,"[4]; 10 µmol/L BAK, Figure 4",significantly stimulated CDK1 protein synthesis
same,CDK1 protein synthesis,[4]; BAK 1 to 10 µmol/L for 3 d,stimulated CDK1 protein synthesis
same,MKI67 protein synthesis (immunofluorescent staining),[5],clearly promoted MKI67 protein synthesis
same,cell proliferation (EdU staining),[6],significantly promoted cell proliferation
same,mRNA level of MKI67,[7],significantly up‐regulated
same,mRNA level of E2F1,[8],significantly up‐regulated
same,ratio of phosphorylated/total Akt (p/t-Akt),[9]; 10 µmol/L BAK,improved the ratios
same,mRNA level of CDK1,[10],significantly up‐regulated
same,"expression of Ki67, p-ERK and p-Akt in vivo",[11],promoted the expression
same,E2F1 protein (translation level),[12],up‐regulated E2F1 at the translation level
same,histological score of the defects,[13]; 1 week,3.60 ± 0.54
same,histological score of the defects,[13]; 2 weeks,5.40 ± 0.55
same,content of GAG vs control,[13]; Alcian blue,clearly different
Oc1cccc(-c2nc(N3CCOCC3)c3oc4ncccc4c3n2)c1 [PI‐103],CDK1 protein levels in chondrocytes,[4],reduced
same,p/t-Akt ratio in chondrocytes,[9]; 1 µmol/L PI-103 added to 10 µmol/L BAK,reduced
O=C(Nc1ccc2[nH]nc(-c3ccncc3)c2c1)[C@@H]1CCN(CC(=O)N2CCN(c3ccc(-c4ncccn4)cc3)CC2)C1 [SCH772984],p/t-ERK1/2 ratio in chondrocytes,[1]; 1 µmol/L SCH772984 added to 10 µmol/L BAK,reduced
same,CDK1 protein levels in chondrocytes,[4],reduced
